Measurements: PMC6112376, “Comprehensive Analyses and Prioritization of Tox21 10K Chemicals Affecting Mitochondrial Function by in-Depth Mechanistic Studies” (Environmental Health Perspectives, 2018)
Like-named read-outs stand apart in the source and are kept apart here.

Key:
HepG2 cells [1] = assay: Oxygen consumption, Seahorse XF24 analyzer; assay type: cell-based, human
rat primary hepatocytes [2] = tested on: rat primary hepatocytes
[3] = tested on: HeLa cells expressing YFP-Parkin; assay: Parkin translocation assay; assay type: cell-based, human
HepG2 cells [4] = tested on: HepG2 cells
[5] = tested on: p53 (p53-bla HCT-116 cells); assay: p53 β-lactamase reporter gene assay; assay type: cell-based, human
[6] = tested on: isolated rat liver mitochondria; assay: Oxygen consumption, Clark-type oxygen electrode; assay type: biochemical
rat primary hepatocytes [7] = assay: MMP assay in rat primary hepatocytes
HepG2 cells [8] = assay: ROS-Glo hydrogen peroxide (ROS) assay; assay type: cell-based, human
HepG2 cells [9] = details: cited from earlier work
hNSC = assay: MMP assay in human neural stem cells (hNSC); assay type: cell-based
HepG2 cells [10] = assay: Intracellular ATP content (cell viability) assay; assay type: cell-based, human
[11] = tested on: Nrf2/ARE (ARE-bla HepG2 cells); assay: ARE β-lactamase reporter gene assay; assay type: cell-based, human

CC(C)c1cccc(C(C)C)c1N1C(=O)c2ccc(O)cc2C1=O [5HPP-33]
Activity in oxygen consumption (HepG2 cells [1]): Uncoupler+inhibitor
Rat hepatocytes (efficacy) (MMP) (rat primary hepatocytes [2]): 38.3±4.41 ( −99.8±6.08 ) %
Parkin recruitment [3]: Active
HepG2 (efficacy) Galactose (MMP) (HepG2 cells [4]): 29.4±5.02 ( −106±1.68 ) %
HepG2 (efficacy) Glucose (MMP) (HepG2 cells [4]): 20.1±3.62 ( −100±2.99 ) %
MMP assays efficacy (%) HepG2 (HepG2 cells [4]): -96%
IC50 (HepG2 cells [4]; read-out: HepG2 IC50 Galactose (MMP)): 29.4 µM
IC50 (HepG2 cells [4]; read-out: HepG2 IC50 Glucose (MMP)): 20.1 µM
IC50 (HepG2 cells [4]; read-out: MMP assays IC50 (µM) HepG2): 2.24 µM
EC50 ([5]; 16 h incubation, mean±SD of three experiments): 1730 ± 190 nM
p53 (HCT-116) (efficacy) ([5]; % of positive control): 76.9±9.78%
Potential Mechanism [6]: Uncoupler at low concentration (20 µM), and uncoupler + inhibitor at high concentration (100 µM)
I-ADP, % of control (O2 consumption rate) ([6]; 4 µM): 107 (52.5) % of control
I-sub, % of control (O2 consumption rate) ([6]; 4 µM): 123 (19.8) % of control
II-ADP, % of control (O2 consumption rate) ([6]; 4 µM): 89 (69.2) % of control
II-sub, % of control (O2 consumption rate) ([6]; 4 µM): 97 (29.6) % of control
I-ADP, % of control (O2 consumption rate) ([6]; 20 µM): 122 (60.3) % of control
I-sub, % of control (O2 consumption rate) ([6]; 20 µM): 296 (47.6) % of control
II-ADP, % of control (O2 consumption rate) ([6]; 20 µM): 95 (73.6) % of control
II-sub, % of control (O2 consumption rate) ([6]; 20 µM): 166 (50.8) % of control
I-ADP, % of control (O2 consumption rate) ([6]; 100 µM): 77 (41.0) % of control
I-sub, % of control (O2 consumption rate) ([6]; 100 µM): 331 (44.5) % of control
II-ADP, % of control (O2 consumption rate) ([6]; 100 µM): 51 (34.2) % of control
II-sub, % of control (O2 consumption rate) ([6]; 100 µM): 200 (43.4) % of control
IC50 (rat primary hepatocytes [7]; read-out: MMP assays IC50 (µM) Rat Hepatocytes): 29.1 ± 12.2 µM
IC50 (rat primary hepatocytes [7]; read-out: Rat hepatocytes IC50 (MMP)): 38.3 µM
ROS (HepG2) (efficacy) (HepG2 cells [8]): 37.1±2.42 ( 37.6±1.63 ) %
EC50 (HepG2 cells [8]; read-out: ROS (HepG2) EC50): 37.1 µM
MMP assays efficacy (%) qHTS-HepG2 (HepG2 cells [9]): -97±0%
IC50 (HepG2 cells [9]; read-out: MMP assays IC50 (µM) qHTS-HepG2): 2.09 ± 0.87 µM
hNSC (efficacy) (MMP) (hNSC): 12.1±1.39 ( −107±4.15 ) %
IC50 (hNSC; read-out: hNSC IC50 (MMP)): 12.1 µM
ATP (HepG2, galactose) (efficacy) (HepG2 cells [10]): 39.7±2.69 ( −66.5±7.10 ) %
ATP (HepG2, glucose) (efficacy) (HepG2 cells [10]): 51.2±14.4 ( −67.7±3.67 ) %
IC50 (HepG2 cells [10]; read-out: ATP (HepG2, galactose) IC50): 39.7 µM
IC50 (HepG2 cells [10]; read-out: ATP (HepG2, glucose) IC50): 51.2 µM
EC50 ([11]; 16 h incubation, mean±SD of three experiments, read-out: ARE (HepG2) EC50): 25.3 ± 1.74 µM
ARE (HepG2) (efficacy) ([11]; % of positive control): 54.9±7.97%
